# Measured values from PubChem BioAssay (NCI).
#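 Five concentrations, 48 hours, 96-well plates. TGI is the concentration that stops growth completely.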
# Assays:
# Assay in all cases: NCI tumour cell line growth inhibition, 48 h
# HOP-62 NSCLC = tested on: HOP-62 NSCLC
# COLO 205 colon = tested on: COLO 205 colon
# UO-31 renal = tested on: UO-31 renal
# SK-MEL-2 melanoma = tested on: SK-MEL-2 melanoma
# SF-268 CNS = tested on: SF-268 CNS
# UACC-62 melanoma = tested on: UACC-62 melanoma
# NCI-H460 lung = tested on: NCI-H460 lung
# HCT-116 colon = tested on: HCT-116 colon
# SNB-19 CNS = tested on: SNB-19 CNS
# MALME-3M melanoma = tested on: MALME-3M melanoma
# NCI/ADR-RES ovarian = tested on: NCI/ADR-RES ovarian
# MOLT-4 leukemia = tested on: MOLT-4 leukemia
# RPMI-8226 leukemia = tested on: RPMI-8226 leukemia
# SF-295 CNS = tested on: SF-295 CNS
# BT-549 breast = tested on: BT-549 breast
# OVCAR-5 ovarian = tested on: OVCAR-5 ovarian
# MDA-N = tested on: MDA-N
# A549 NSCLC = tested on: A549 NSCLC
# CCRF-CEM leukemia = tested on: CCRF-CEM leukemia
# CAKI-1 renal = tested on: CAKI-1 renal
# SR leukemia = tested on: SR leukemia
# MDA-MB-231 breast = tested on: MDA-MB-231 breast
# IGROV1 ovarian = tested on: IGROV1 ovarian
# SK-OV-3 ovarian = tested on: SK-OV-3 ovarian
# K-562 leukemia = tested on: K-562 leukemia
# TK-10 renal = tested on: TK-10 renal
# KM12 colon = tested on: KM12 colon
# M14 melanoma = tested on: M14 melanoma
# LOX IMVI melanoma = tested on: LOX IMVI melanoma
# SN12C renal = tested on: SN12C renal
# HCC-2998 colon = tested on: HCC-2998 colon
# SNB-75 CNS = tested on: SNB-75 CNS
# MCF7 breast = tested on: MCF7 breast
# 786-0 renal = tested on: 786-0 renal
# SK-MEL-5 melanoma = tested on: SK-MEL-5 melanoma
# UACC-257 melanoma = tested on: UACC-257 melanoma
# A498 renal = tested on: A498 renal
# NCI-H522 lung = tested on: NCI-H522 lung
# OVCAR-8 ovarian = tested on: OVCAR-8 ovarian
# ACHN renal = tested on: ACHN renal
# NCI-H226 lung = tested on: NCI-H226 lung
# HS 578T breast = tested on: HS 578T breast
# PC-3 prostate = tested on: PC-3 prostate
# SK-MEL-28 melanoma = tested on: SK-MEL-28 melanoma
# NCI-H23 lung = tested on: NCI-H23 lung
# HT29 colon = tested on: HT29 colon
# HL-60(TB) leukemia = tested on: HL-60(TB) leukemia
# HOP-92 NSCLC = tested on: HOP-92 NSCLC
# SW-620 colon = tested on: SW-620 colon
# OVCAR-4 ovarian = tested on: OVCAR-4 ovarian
# U251 CNS = tested on: U251 CNS
# MDA-MB-435 = tested on: MDA-MB-435
# EKVX NSCLC = tested on: EKVX NSCLC
# RXF 393 renal = tested on: RXF 393 renal
# HCT-15 colon = tested on: HCT-15 colon
# OVCAR-3 ovarian = tested on: OVCAR-3 ovarian
# DU-145 prostate = tested on: DU-145 prostate
# SF-539 CNS = tested on: SF-539 CNS
smiles,measurement,setting,value
CSc1cc(Cl)c(C)cc1S(=O)(=O)NC(=O)Nc1ccc(Cl)cc1,TGI,HOP-62 NSCLC,63.2 µM
same,TGI,COLO 205 colon,29.8 µM
same,TGI,UO-31 renal,31.5 µM
same,TGI,SK-MEL-2 melanoma,49 µM
same,TGI,SF-268 CNS,> 100 µM
same,TGI,UACC-62 melanoma,14.8 µM
same,TGI,NCI-H460 lung,> 100 µM
same,TGI,HCT-116 colon,35.7 µM
same,TGI,SNB-19 CNS,92 µM
same,TGI,MALME-3M melanoma,85.1 µM
same,TGI,NCI/ADR-RES ovarian,97.1 µM
same,TGI,MOLT-4 leukemia,40.9 µM
same,TGI,RPMI-8226 leukemia,> 100 µM
same,TGI,SF-295 CNS,> 100 µM
same,TGI,BT-549 breast,> 100 µM
same,TGI,OVCAR-5 ovarian,> 100 µM
same,TGI,MDA-N,> 100 µM
same,TGI,A549 NSCLC,> 100 µM
same,TGI,CCRF-CEM leukemia,39.2 µM
same,TGI,CAKI-1 renal,> 100 µM
same,TGI,SR leukemia,> 100 µM
same,TGI,MDA-MB-231 breast,> 100 µM
same,TGI,IGROV1 ovarian,> 100 µM
same,TGI,SK-OV-3 ovarian,> 100 µM
same,TGI,K-562 leukemia,> 100 µM
same,TGI,TK-10 renal,81.5 µM
same,TGI,KM12 colon,80.8 µM
same,TGI,M14 melanoma,> 100 µM
same,TGI,LOX IMVI melanoma,52.5 µM
same,TGI,SN12C renal,> 100 µM
same,TGI,HCC-2998 colon,38.4 µM
same,TGI,SNB-75 CNS,62.1 µM
same,TGI,MCF7 breast,> 100 µM
same,TGI,786-0 renal,> 100 µM
same,TGI,SK-MEL-5 melanoma,64.9 µM
same,TGI,UACC-257 melanoma,79.8 µM
same,TGI,A498 renal,> 100 µM
same,TGI,NCI-H522 lung,41.4 µM
same,TGI,OVCAR-8 ovarian,> 100 µM
same,TGI,ACHN renal,> 100 µM
same,TGI,NCI-H226 lung,45.1 µM
same,TGI,HS 578T breast,> 100 µM
same,TGI,PC-3 prostate,> 100 µM
same,TGI,SK-MEL-28 melanoma,> 100 µM
same,TGI,NCI-H23 lung,40.4 µM
same,TGI,HT29 colon,> 100 µM
same,TGI,HL-60(TB) leukemia,28 µM
same,TGI,HOP-92 NSCLC,45.5 µM
same,TGI,SW-620 colon,92.7 µM
same,TGI,OVCAR-4 ovarian,> 100 µM
same,TGI,U251 CNS,> 100 µM
same,TGI,MDA-MB-435,88 µM
same,TGI,EKVX NSCLC,87.8 µM
same,TGI,RXF 393 renal,51.7 µM
same,TGI,HCT-15 colon,84.1 µM
same,TGI,OVCAR-3 ovarian,74 µM
FC(F)(F)c1ccc(C2=N/S(c3ccccc3)=N\C(c3ccc(C(F)(F)F)cc3)=N/S(c3ccccc3)=N\2)cc1 (stereo unspecified),TGI,COLO 205 colon,> 100 µM
same,TGI,UO-31 renal,> 100 µM
same,TGI,SK-MEL-2 melanoma,> 100 µM
same,TGI,SF-268 CNS,> 100 µM
same,TGI,UACC-62 melanoma,> 100 µM
same,TGI,NCI-H460 lung,> 100 µM
same,TGI,HCT-116 colon,> 100 µM
same,TGI,SNB-19 CNS,> 100 µM
same,TGI,MALME-3M melanoma,> 100 µM
same,TGI,NCI/ADR-RES ovarian,> 100 µM
same,TGI,MOLT-4 leukemia,> 100 µM
same,TGI,RPMI-8226 leukemia,> 100 µM
same,TGI,DU-145 prostate,> 100 µM
same,TGI,SF-295 CNS,> 100 µM
same,TGI,BT-549 breast,> 100 µM
same,TGI,OVCAR-5 ovarian,> 100 µM
same,TGI,MDA-N,> 100 µM
same,TGI,A549 NSCLC,> 100 µM
same,TGI,CCRF-CEM leukemia,> 100 µM
same,TGI,CAKI-1 renal,> 100 µM
same,TGI,SR leukemia,> 100 µM
same,TGI,MDA-MB-231 breast,> 100 µM
same,TGI,IGROV1 ovarian,> 100 µM
same,TGI,SK-OV-3 ovarian,> 100 µM
same,TGI,K-562 leukemia,> 100 µM
same,TGI,TK-10 renal,> 100 µM
same,TGI,KM12 colon,> 100 µM
same,TGI,M14 melanoma,> 100 µM
same,TGI,SF-539 CNS,> 100 µM
same,TGI,LOX IMVI melanoma,> 100 µM
same,TGI,SN12C renal,> 100 µM
same,TGI,HCC-2998 colon,> 100 µM
same,TGI,SNB-75 CNS,> 100 µM
same,TGI,MCF7 breast,> 100 µM
same,TGI,786-0 renal,> 100 µM
same,TGI,SK-MEL-5 melanoma,> 100 µM
same,TGI,UACC-257 melanoma,> 100 µM
same,TGI,NCI-H522 lung,> 100 µM
same,TGI,OVCAR-8 ovarian,> 100 µM
same,TGI,ACHN renal,> 100 µM
same,TGI,HS 578T breast,> 100 µM
same,TGI,PC-3 prostate,> 100 µM
same,TGI,SK-MEL-28 melanoma,> 100 µM
same,TGI,NCI-H23 lung,> 100 µM
same,TGI,HT29 colon,> 100 µM
same,TGI,HOP-92 NSCLC,> 100 µM
same,TGI,SW-620 colon,> 100 µM
same,TGI,OVCAR-4 ovarian,> 100 µM
same,TGI,U251 CNS,> 100 µM
same,TGI,MDA-MB-435,> 100 µM
same,TGI,EKVX NSCLC,> 100 µM
same,TGI,RXF 393 renal,> 100 µM
same,TGI,HCT-15 colon,> 100 µM
same,TGI,OVCAR-3 ovarian,> 100 µM
O=C1C(=C2SC(c3ccccc3)(c3ccccc3)c3ccccc32)C(=O)c2ccccc21,TGI,HOP-62 NSCLC,> 100 µM
same,TGI,COLO 205 colon,> 100 µM
same,TGI,UO-31 renal,> 100 µM
same,TGI,SF-268 CNS,> 100 µM
same,TGI,UACC-62 melanoma,> 100 µM
same,TGI,NCI-H460 lung,> 100 µM
same,TGI,HCT-116 colon,> 100 µM
same,TGI,SNB-19 CNS,> 100 µM
same,TGI,MALME-3M melanoma,> 100 µM
same,TGI,NCI/ADR-RES ovarian,> 100 µM
same,TGI,MOLT-4 leukemia,> 100 µM
same,TGI,RPMI-8226 leukemia,> 100 µM
same,TGI,DU-145 prostate,> 100 µM
same,TGI,SF-295 CNS,> 100 µM
same,TGI,BT-549 breast,> 100 µM
same,TGI,OVCAR-5 ovarian,> 100 µM
same,TGI,MDA-N,> 100 µM
same,TGI,A549 NSCLC,> 100 µM
same,TGI,CCRF-CEM leukemia,> 100 µM
same,TGI,CAKI-1 renal,> 100 µM
same,TGI,SR leukemia,> 100 µM
same,TGI,MDA-MB-231 breast,> 100 µM
same,TGI,IGROV1 ovarian,> 100 µM
same,TGI,SK-OV-3 ovarian,> 100 µM
same,TGI,K-562 leukemia,> 100 µM
same,TGI,TK-10 renal,> 100 µM
same,TGI,KM12 colon,> 100 µM
same,TGI,M14 melanoma,> 100 µM
same,TGI,SF-539 CNS,> 100 µM
same,TGI,LOX IMVI melanoma,> 100 µM
same,TGI,SN12C renal,> 100 µM
same,TGI,HCC-2998 colon,> 100 µM
same,TGI,SNB-75 CNS,> 100 µM
same,TGI,MCF7 breast,> 100 µM
same,TGI,786-0 renal,> 100 µM
same,TGI,SK-MEL-5 melanoma,> 100 µM
same,TGI,UACC-257 melanoma,> 100 µM
same,TGI,A498 renal,> 100 µM
same,TGI,NCI-H522 lung,> 100 µM
same,TGI,OVCAR-8 ovarian,> 100 µM
same,TGI,ACHN renal,> 100 µM
same,TGI,NCI-H226 lung,> 100 µM
same,TGI,HS 578T breast,> 100 µM
same,TGI,PC-3 prostate,> 100 µM
same,TGI,SK-MEL-28 melanoma,> 100 µM
same,TGI,NCI-H23 lung,> 100 µM
same,TGI,HT29 colon,> 100 µM
same,TGI,HOP-92 NSCLC,> 100 µM
same,TGI,SW-620 colon,> 100 µM
same,TGI,OVCAR-4 ovarian,> 100 µM
same,TGI,U251 CNS,> 100 µM
same,TGI,MDA-MB-435,> 100 µM
same,TGI,EKVX NSCLC,> 100 µM
same,TGI,RXF 393 renal,> 100 µM
same,TGI,HCT-15 colon,> 100 µM
same,TGI,OVCAR-3 ovarian,> 100 µM
